Data: PubChem BioAssay (NCI)
“And” between values parts separate entries of the source, which are not always exact repeats. Equal entries are not always repeated.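 96-well plates; 48 h exposure; 5 concentrations. Endpoints by linear interpolation between flanking doses. Not reached: highest tested concentration assigned. Abbreviation: GI50, concentration required for 50% inhibition of growth. At the TGI there is no net growth.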

Tests used:
[1] = system: MDA-MB-435; test: growth of human tumour cells (NCI), 48 h
[2] = system: T-47D breast; test: growth of human tumour cells (NCI), 48 h

Compound: CCN(CCCN(C)C)Cc1cc(I)cc(C)c1O
- GI50 [1]: 15.7 µM
- TGI [1]: 31.6 µM
- GI50 [2]: 21.3 µM
- TGI [2]: 48.5 µM

Compound: O=C(Nc1ccc2[nH]nc(-c3ccncc3)c2c1)[C@@H]1CCN(CC(=O)N2CCN(c3ccc(-c4ncccn4)cc3)CC2)C1
- GI50 [2]: 2.74 µM
- TGI [2]: > 100 µM

Compound: O=c1[nH]c2ccccc2c2ccccc12
- GI50 [1]: > 100 µM
- TGI [1]: > 100 µM
- GI50 [2]: > 100 µM
- TGI [2]: > 100 µM

Compound: CC(N)C(Cc1ccc(Cl)cc1)c1ccc(Cl)cc1 (stereo not given)
- GI50 [1]: 8.2 µM
- TGI [1]: 20.7 µM
- GI50 [2]: 10.7 µM
- TGI [2]: 26 µM

Compound: CCCCCCCCCCCCOC1C(CNC(=O)C2OC3OC(C)(C)OC3C2NC(=O)Nc2ccc(CC(=O)OC)cc2)OC2OC(C)(C)OC21 (stereo not given)
- GI50 [1]: > 100 µM
- TGI [1]: > 100 µM
- GI50 [2]: > 100 µM
- TGI [2]: > 100 µM

Compound: Cc1cccc(N(C)C(=O)[C@@H]2[C@H](O)CCN2c2nc(C)cc(C(F)(F)F)c2C#N)c1
- GI50 [1]: 32 µM
- TGI [1]: > 100 µM
- GI50 [2]: 23.2 µM
- TGI [2]: > 100 µM

Compound: O=Nc1ccc(O)c(=O)cc1
- GI50 [1]: 3.28 µM
- TGI [1]: 13.2 µM
- GI50 [2]: 1.76 µM
- TGI [2]: 4.28 µM

Compound: O=S(=O)(NCCCNc1nccc(-c2c(-c3ccc(O)cc3)nc3sccn23)n1)c1ccc(F)cc1
- GI50 [1]: 0.245 µM
- TGI [1]: 4.76 µM
- GI50 [2]: 1.39 µM
- TGI [2]: 3.55 µM

Compound: COc1ccc2c(c1)/C(=C\c1c(-c3cc(OC)ccc3OC)nc3sc(C)cn13)C(=O)N2C
- GI50 [1]: 26.5 µM
- TGI [1]: 79.9 µM
- GI50 [2]: 29.7 µM
- TGI [2]: > 100 µM

Compound: O=C(CC(Cl)=C(Cl)Cl)Nc1ccccc1
- GI50 [2]: > 100 µM
- TGI [2]: > 100 µM

Compound: O=C(Cc1ccc(/C=C/C(=O)c2ncc[nH]2)cc1)Nc1ccc(F)cc1
- GI50 [1]: 4.07 µM
- TGI [1]: 20.1 µM
- GI50 [2]: 3.33 µM
- TGI [2]: 24.6 µM

Compound: NS(=O)(=O)c1ccc(Nc2cc(-c3cccc(O)c3)[nH]n2)cc1
- GI50 [1]: > 25 µM
- TGI [1]: > 25 µM
- GI50 [2]: 10 µM
- TGI [2]: > 25 µM

Compound: Fc1cccc(COc2ccc(Nc3ncnc4sc(-c5cccs5)cc34)cc2Cl)c1
- GI50 [1]: 3.61 µM
- TGI [1]: > 19.1 µM
- GI50 [2]: 2.71 µM
- TGI [2]: 9.04 µM

Compound: CS(=O)(=O)Nc1cncc(-c2ccc3ncnc(Nc4ccc(F)c(Cl)c4)c3c2)c1
- GI50 [1]: 3.92 µM
- TGI [1]: 17 µM
- GI50 [2]: 0.189 µM
- TGI [2]: 2.5 µM

Compound: Cc1nc2ccc(Nc3nc(Cl)nc(N4CCOCC4)n3)cc2n1Cc1ccccc1
- GI50 [1]: 8.23 µM
- TGI [1]: > 100 µM
- GI50 [2]: 3.27 µM
- TGI [2]: > 100 µM

Compound: CC(=O)Nc1ccc2c(c1)C(c1ccccc1Cl)=Nc1c(n[nH]c1C)N2
- GI50 [1]: > 20 µM
- TGI [1]: > 25 µM
- GI50 [2]: 8.38 µM
- TGI [2]: > 23.6 µM

Compound: COc1cc(C2Cc3ncccc3-c3[nH]c(=O)c4cccnc4c32)cc(OC)c1OC (stereo not given)
- GI50 [1]: 0.0554 µM
- TGI [1]: 0.428 µM

Compound: O=C(Oc1cccc2cccnc12)c1cc2c(cc1Cl)SC(N(c1ccc(F)cc1)S(=O)(=O)c1ccc(Br)s1)=NS2(=O)=O
- GI50 [1]: 26 µM
- TGI [1]: > 100 µM
- GI50 [2]: 4.93 µM
- TGI [2]: 38.9 µM

Compound: CCN1C(=S)N(c2ccccc2)C2NC(=S)N(/N=C/C=C/c3ccccc3OC)C21 (stereo not given)
- GI50 [1]: 0.0775 µM
- TGI [1]: 0.337 µM
- GI50 [2]: > 100 µM
- TGI [2]: > 100 µM

Compound: CCSCC1CC(O)(c2ccccc2)CC(c2ccc(F)cc2)O1 (stereo not given)
- GI50 [1]: 2.04 µM
- TGI [1]: 4.36 µM
- GI50 [2]: 2.23 µM
- TGI [2]: 8.24 µM

Compound: Cc1nc([P+](c2ccccc2)(c2ccccc2)c2ccccc2)c(Sc2sc(-c3ccccc3)nc2[P+](c2ccccc2)(c2ccccc2)c2ccccc2)o1
- GI50 [1]: 1.19 µM
- TGI [1]: 3.46 µM
- GI50 [2]: 0.327 µM
- TGI [2]: 8.81 µM

Compound: CC(=O)c1ccc2c(c1)c1cc(C(C)=O)ccc1n2CCNC(C)C
- GI50 [1]: 0.364 µM
- TGI [1]: 1.44 µM
- GI50 [2]: 0.523 µM
- TGI [2]: 13 µM

Compound: OCCN1CCN(CCCN2c3ccccc3Sc3ccc(Cl)cc32)CC1
- GI50 [1]: 1.72 µM
- TGI [1]: 3.33 µM
- GI50 [2]: 1.91 µM
- TGI [2]: 5.56 µM

Compound: Cc1cc(S(=O)(=O)Nc2nc3ccccc3o2)c(SCc2ccccc2)cc1Cl
- GI50 [1]: 19.8 µM
- TGI [1]: 42.7 µM

Compound: Fc1cc2[nH]ncc2c2c3c(c(-c4cn[nH]c4C(F)(F)F)nc12)CCCC3
- GI50 [1]: 2.39 µM
- TGI [1]: 12.1 µM
- GI50 [2]: 1.97 µM
- TGI [2]: 7.39 µM

Compound: CCOC(=O)c1cc(C(=O)c2cc(OC)c(OC)c(OC)c2)n2ncccc12
- GI50 [1]: 0.0314 µM
- TGI [1]: 0.117 µM

Compound: CCN1C/C(=C\c2cc(OC)c(OC)cc2OC)C(=O)/C(=C/c2cc(OC)c(OC)cc2OC)C1
- GI50 [1]: 2.07 µM
- TGI [1]: 4.3 µM
- GI50 [2]: 2.96 µM
- TGI [2]: > 100 µM

Compound: COc1cc(/C=C\c2cc(OC)c(OC)c(OC)c2)cc(N/C=C\C(=O)c2ccc(OC(F)(F)F)cc2)c1OC
- GI50 [1]: 1.84 µM
- TGI [1]: 5.52 µM
- GI50 [2]: 4.16 µM
- TGI [2]: > 100 µM

Compound: COc1ccc(C2CC(c3cccc(Nc4ccnc5cc(Cl)ccc45)c3)=NN2C=O)cc1 (stereo not given)
- GI50 [1]: 0.142 µM
- TGI [1]: 0.809 µM
- GI50 [2]: 0.604 µM
- TGI [2]: > 42.8 µM

Compound: Nc1nccc(-c2c(-c3ccc(F)cc3)ncn2C2CCNCC2)n1
- GI50 [1]: 2.87 µM and 4.17 µM
- TGI [1]: > 25 µM
- GI50 [2]: 1.55 µM and 4.2 µM
- TGI [2]: > 25 µM
